According to US20240398817A1, “CARDIO- AND RENOSAFE ANTIDIABETIC THERAPY” (priority 2018, published 2024):

System: patients with type 2 diabetes at high vascular risk
Experiment: Cardiovascular and Renal Outcomes Trial: linagliptin 5 mg once daily vs placebo on top of standard of care
Format: in vivo
Conditions: for Hazard ratio for hospitalised heart failure: vs placebo
Protocol: The effect of linagliptin on cardiovascular risk in adult patients with type 2 diabetes mellitus and with increased CV risk evidenced by a history of established macrovascular or renal disease (e.g. as defined herein) was evaluated in a multi-center, multi-national, randomized, double-blind parallel group trial. The trial compared the risk of experiencing a major adverse cardiovascular event (MACE) between linagliptin and placebo when these were added to and used concomitantly with standard of care treatments for diabetes (HbA1c), cardiovascular risk factors and renal disease.
The primary endpoint in this trial was the time to first occurrence of three point (3P) MACE. A major adverse cardiac event was defined as a cardiovascular death or a nonfatal myocardial infarction (MI) or a nonfatal stroke. The statistical analysis plan tested for non-inferiority for the occurrence of (3P) MACE. […] The secondary endpoint was a renal composite, defined as renal death or sustained end stage renal disease or sustained decrease of 40% or more in eGFR.
Type 2 diabetes patient with insufficient glycemic control (naïve or pre-treated with any antidiabetic background medication, excluding treatment with GLP-1 receptor agonists, DPP-4inhibitors or SGLT-2 inhibitors if ≥consecutive 7 days, e.g. having HbA1c 6.5-10%), and high risk of cardiovascular events, e.g. defined by: • albuminuria (micro or macro) and previous macrovascular disease: e.g. defined according to Condition I as indicated below; • and/or • impaired renal function: e.g. as defined according to Condition II as indicated below;
Background and aims: People with type 2 diabetes (T2D) are at increased risk for hospitalization for heart failure (hHF), particularly in the setting of concomitant cardiovascular (CV) and/or kidney disease. […] Here we present analyses of HF outcomes with the DPP-4 inhibitor linagliptin (LINA) vs. placebo (PBO) from a Cardiovascular and Renal Outcomes Trial assessing cardiovascular safety and renal microvascular outcome in patients with type 2 diabetes at high vascular risk, a large CV outcomes trial that enrolled participants with T2D at high risk for hHF due to concomitant CV and/or chronic kidney disease. Materials and methods: People with T2D and concomitant CV and/or kidney disease were randomized to receive LINA 5 mg, or PBO once daily (1:1), on top of standard of care. All hHF, CV outcomes, and deaths were centrally adjudicated, with individual and composite HF-related outcomes analyses comparing LINA vs. placebo. Investigator-reported HF-related adverse events, whether or not confirmed by adjudication, were also analyzed. A Cox proportional hazards model adjusting for region and history of HF was used for analyses of first events. Recurrent hHF events were analyzed using a negative binomial model.
Methods: The present Cardiovascular and Renal Outcomes Trial randomized people with T2D and i) concomitant CV disease with UACR >30 mg/g or ii) prevalent CKD (i.e. GFR <45 ml/min/1.73m2 and/or UACR >200 mg/g) to receive the DPP-4 inhibitor linagliptin (5 mg) or placebo once daily in a double-blind fashion. The primary CV endpoint was 3P-MACE, with a key secondary kidney endpoint (adjudicated ESKD, renal death, or sustained ≥40% decrease in eGFR from baseline) and other renal outcomes (including albuminuria and eGFR slope) also assessed. Subgroups were assessed by baseline kidney function (eGFR ≥/<45 ml/min/1.73m2and eGFR ≥/<30, 45 or 60 ml/min/1.73m2).
Adults with type 2 diabetes, HbA1c 6.5-10.0% inclusive, and high CV risk were eligible for inclusion. […] Macrovascular disease eligibility criteria was based on documented and confirmed history of myocardial infarction, coronary artery disease, stroke, carotid artery disease, or peripheral artery disease. Participants with end-stage kidney disease (ESKD), defined as eGFR <15 or requiring maintenance dialysis, were excluded.

[1] = Urine albumin-to-creatinine ratio 30 to 300 mg/g
[2] = Urine albumin-to-creatinine ratio <30 mg/g
[3] = Urine albumin-to-creatinine ratio >300 mg/g

CC#CCn1c(N2CCC[C@@H](N)C2)nc2c1c(=O)n(Cc1nc(C)c3ccccc3n1)c(=O)n2C [Linagliptin, 1-[(4-methyl-quinazolin-2-yl)methyl]-3-methyl-7-(2-butyn-1-yl)-8-(3-(R)-amino-piperidin-1-yl)-xanthine]
3-point MACE: hazard ratio vs placebo (Race Other): 1.86
3-point MACE: patients with event/patients analyzed (Race Other): 23/166
Key secondary kidney outcome: hazard ratio vs placebo (Race Other): 1.16
Key secondary kidney outcome: patients with event/patients analyzed (Race Other): 23/166
Patients with event/patients analysed, hospitalised heart failure (Race Other): 6/166
3-point MACE: hazard ratio vs placebo (Race White): 0.97
3-point MACE: patients with event/patients analyzed (Race White): 340/2827
Key secondary kidney outcome: hazard ratio vs placebo (Race White): 1.03
Key secondary kidney outcome: patients with event/patients analyzed (Race White): 237/2827
Patients with event/patients analysed, hospitalised heart failure (Race White): 174/2827
3-point MACE: hazard ratio vs placebo (Region Asia): 0.90
3-point MACE: patients with event/patients analyzed (Region Asia): 29/272
Key secondary kidney outcome: hazard ratio vs placebo (Region Asia): 0.96
Key secondary kidney outcome: patients with event/patients analyzed (Region Asia): 29/272
Patients with event/patients analysed, hospitalised heart failure (Region Asia): 12/272
Hazard ratio for hospitalised heart failure (Region Asia): 0.47
3-point MACE: hazard ratio vs placebo (Region Europe + South Africa): 0.92
3-point MACE: patients with event/patients analyzed (Region Europe + South Africa): 182/1473
Key secondary kidney outcome: hazard ratio vs placebo (Region Europe + South Africa): 0.96
Key secondary kidney outcome: patients with event/patients analyzed (Region Europe + South Africa): 98/1473
Patients with event/patients analysed, hospitalised heart failure (Region Europe + South Africa): 101/1473
Hazard ratio for hospitalised heart failure (Region Europe + South Africa): 1.13
3-point MACE: hazard ratio vs placebo (Region Latin America): 1.10
3-point MACE: patients with event/patients analyzed (Region Latin America): 132/1156
Key secondary kidney outcome: hazard ratio vs placebo (Region Latin America): 1.07
Key secondary kidney outcome: patients with event/patients analyzed (Region Latin America): 149/1156
Patients with event/patients analysed, hospitalised heart failure (Region Latin America): 54/1156
Hazard ratio for hospitalised heart failure (Region Latin America): 0.99
3-point MACE: hazard ratio vs placebo (Region North America): 1.25
3-point MACE: patients with event/patients analyzed (Region North America): 91/593
Key secondary kidney outcome: hazard ratio vs placebo (Region North America): 1.19
Key secondary kidney outcome: patients with event/patients analyzed (Region North America): 51/593
Patients with event/patients analysed, hospitalised heart failure (Region North America): 42/593
Hazard ratio for hospitalised heart failure (Region North America): 0.65
Key secondary kidney outcome: hazard ratio vs placebo (SBP 140 mmHg or DBP ≥90 mmHg): 1.08
Key secondary kidney outcome: patients with event/patients analyzed (SBP 140 mmHg or DBP ≥90 mmHg): 222/1800
3-point MACE: hazard ratio vs placebo (SBP <140 mmHg and DBP <90 mmHg): 0.93
3-point MACE: patients with event/patients analyzed (SBP <140 mmHg and DBP <90 mmHg): 185/1694
Key secondary kidney outcome: hazard ratio vs placebo (SBP <140 mmHg and DBP <90 mmHg): 0.99
Key secondary kidney outcome: patients with event/patients analyzed (SBP <140 mmHg and DBP <90 mmHg): 105/1694
3-point MACE: hazard ratio vs placebo (SBP ≥140 mmHg or DBP ≥90 mmHg): 1.11
3-point MACE: patients with event/patients analyzed (SBP ≥140 mmHg or DBP ≥90 mmHg): 249/1800
3-point MACE: hazard ratio vs placebo (Sulfonylurea No): 0.98
3-point MACE: patients with event/patients analyzed (Sulfonylurea No): 315/2392
Key secondary kidney outcome: hazard ratio vs placebo (Sulfonylurea No): 1.10
Key secondary kidney outcome: patients with event/patients analyzed (Sulfonylurea No): 252/2392
Patients with event/patients analysed, hospitalised heart failure (Sulfonylurea No): 166/2392
Hazard ratio for hospitalised heart failure (Sulfonylurea No): 0.92
3-point MACE: hazard ratio vs placebo (Sulfonylurea Yes): 1.15
3-point MACE: patients with event/patients analyzed (Sulfonylurea Yes): 119/1102
Key secondary kidney outcome: hazard ratio vs placebo (Sulfonylurea Yes): 0.87
Key secondary kidney outcome: patients with event/patients analyzed (Sulfonylurea Yes): 75/1102
Patients with event/patients analysed, hospitalised heart failure (Sulfonylurea Yes): 43/1102
Hazard ratio for hospitalised heart failure (Sulfonylurea Yes): 0.82
Composite microvascular endpoint: patients, % (Table 6): (36.3) %
ESKD (component of kidney composite outcome): % (Table 6): (0.03) %
ESKD (component of kidney composite outcome): no. (Table 6): 1
Renal death, sustained ESKD, or sustained decrease of 50% or more in eGFR from baseline: % (Table 6): (7.5) %
Renal death, sustained ESKD, or sustained decrease of 50% or more in eGFR from baseline: no. (Table 6): 263
Sustained decrease of 40% or more in eGFR (component of kidney composite outcome): % (Table 6): (1.8) %
Sustained decrease of 40% or more in eGFR (component of kidney composite outcome): no. (Table 6): 63
Composite microvascular outcome: number of patients, % of n = 3494 (Table 9): 22.5%
3-point MACE: hazard ratio vs placebo (UACR 30 to 300 mg/g): 0.95
3-point MACE: patients with event/patients analyzed (UACR 30 to 300 mg/g): 158/1463
Key secondary kidney outcome: hazard ratio vs placebo (UACR 30 to 300 mg/g): 1.30
Key secondary kidney outcome: patients with event/patients analyzed (UACR 30 to 300 mg/g): 53/1463
3-point MACE: hazard ratio vs placebo (UACR <30 mg/g): 1.10
3-point MACE: patients with event/patients analyzed (UACR <30 mg/g): 67/696
Key secondary kidney outcome: hazard ratio vs placebo (UACR <30 mg/g): 1.46
Key secondary kidney outcome: patients with event/patients analyzed (UACR <30 mg/g): 22/696
3-point MACE: hazard ratio vs placebo (UACR >300 mg/g): 1.06
3-point MACE: patients with event/patients analyzed (UACR >300 mg/g): 208/1333
Key secondary kidney outcome: hazard ratio vs placebo (UACR >300 mg/g): 0.97
Key secondary kidney outcome: patients with event/patients analyzed (UACR >300 mg/g): 252/1333
Patients with event/patients analysed, hospitalised heart failure [1]: 72/1463
Hazard ratio for hospitalised heart failure [1]: 0.86
Patients with event/patients analysed, hospitalised heart failure [2]: 26/696
Hazard ratio for hospitalised heart failure [2]: 0.76
Patients with event/patients analysed, hospitalised heart failure [3]: 111/1333
Hazard ratio for hospitalised heart failure [3]: 0.99
HbA1c vs PBO across all GFR categories, in words (across GFR categories): reduced significantly
Risk for hypoglycemia vs PBO across all GFR categories, in words (across GFR categories): without increased risk for hypoglycemia
Progression of albuminuria across all eGFR categories, in words (across eGFR categories): consistent beneficial effect
3P-MACE: incidence rate per 1000 PY (all patients): 57.7 per 1000 patient years
